Source: patent US5604236A, “Beta-carboline thromboxane synthase inhibitors” (Eli Lilly and Company, priority 1995, dated 1997)
pIC50: −log10 of the molar value. Values belong to the molecule of their own block, whether it stands above or below them.

Columns and labels:
thromboxane synthase = target: T1, thromboxane synthase (Homo sapiens, UniProt P24557); assay: Thromboxane Synthase Inhibition (TSI) Test, serum TXB2 by radioimmunoassay in human whole blood; assay type: cell-based; settings: fresh whole human blood, 30 min at 37° C., then CaCl2 1 hour; TXB2 RIA; read-out: IC50 (concentration of compound required to reduce thromboxane generation to 50% of that obtained with vehicle alone)
T1 construct: incubated with fresh whole human blood, that had been anticoagulated with 0.38% trisodium citrate; from tissue; host or cells: fresh whole human blood (citrated, recalcified to clot)
T1 sequence (P24557 1-533): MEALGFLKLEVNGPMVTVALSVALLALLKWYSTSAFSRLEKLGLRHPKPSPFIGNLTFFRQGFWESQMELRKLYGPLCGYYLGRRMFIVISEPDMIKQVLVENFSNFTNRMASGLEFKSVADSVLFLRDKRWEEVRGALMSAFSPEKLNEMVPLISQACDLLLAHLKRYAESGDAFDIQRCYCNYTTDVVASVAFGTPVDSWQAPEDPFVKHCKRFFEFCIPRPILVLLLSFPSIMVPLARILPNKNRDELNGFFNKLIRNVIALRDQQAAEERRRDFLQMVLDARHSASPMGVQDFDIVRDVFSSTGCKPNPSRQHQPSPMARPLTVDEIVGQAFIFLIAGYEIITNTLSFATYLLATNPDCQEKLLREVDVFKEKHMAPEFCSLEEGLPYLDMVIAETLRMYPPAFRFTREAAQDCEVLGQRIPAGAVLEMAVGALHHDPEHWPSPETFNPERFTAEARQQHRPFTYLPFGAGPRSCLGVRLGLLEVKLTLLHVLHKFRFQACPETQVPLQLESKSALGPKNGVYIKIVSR
Experimental: (§1) The ability of the compounds of the present invention to be an effective thromboxane synthase inhibitors were evaluated in the following Thromboxane Synthase Inhibition (TSI) Assay with the results shown in Table 2 below: The test compounds were dissolved in dimethylsulfoxide. The compound solutions were incubated with fresh whole human blood, that had been anticoagulated with 0.38% trisodium citrate, for 30 minutes at 37° C. After 30 minutes, 0.025 ml of 0.5M calcium chloride solution was added to each 1 ml of blood and further incubated for one hour at 37° C. Serum was prepared by centrifugation of the blood at 2000×g for 15 minutes in a Beckman table top centrifuge. Serum TXB2 and 6-keto-PGF1a, the stable metabolites of and markers of synthesis of TXA2 and prostacyclin respectively, were measured by radioimmunoassay by commonly used test methods (see, Refs.,1 & 2 below). Results from the radioimmunoassay of TXB2 were used to calculate the IC50 (concentration of compound required to reduce thromboxane generation to 50% of that obtained with vehicle alone).

[1] = test system: 6-keto-PGF1a (prostacyclin generation); assay: Serum 6-keto-PGF1a (prostacyclin generation) by radioimmunoassay in human whole blood; assay type: cell-based; settings: for Serum 6-keto-PGF1a: vehicle 2.43
Experimental: as §1, with “The” for “The ability of the compounds of the present invention to be an effective thromboxane synthase inhibitors were evaluated in the following Thromboxane Synthase Inhibition (TSI) Assay with the results shown in Table 2 below: The”
Data determined from the radioimmunoassay of 6-keto-PGF1a (reflecting prostacyclin generation) allowed a determination of the specificity of the compound of example 1 for the inhibition of thromboxane synthase as indicated by increased levels of 6-keto-PGF1a relative to the less specific inhibition of cyclooxygenase by aspirin.

TXB2 = assay: Serum TXB2 levels ex vivo after oral or i.v. administration to rats; assay type: in vivo; settings: rat
Experimental: The blood was allowed to clot in glass tubes for 1 hour at 37° C. Serum was collected after sedimentation of the clot by centrifugation at 2000×g for 15 minutes in a Beckman table top centrifuge. The levels of TXB2 were measured in the serum by radioimmunoassay.

[2] = test system: 6-keto-PGF1a (prostacyclin generation); settings: stated as well known; result in words; cited from earlier work

pIC50 (thromboxane synthase): 4.72
Compound: O=C(O)CCCn1c2ccccc2c2ccncc21 [Example 2, 9H-Pyrido (3,4-β)indole-9-butanoic acid]

pIC50 (thromboxane synthase): 7.04
Compound: O=C(O)CCCCCn1c2ccc([N+](=O)[O-])cc2c2ccncc21 [Example 8, 6-Nitro-9H-pyrido(3,4-β)indole-9-hexanoic acid]

pIC50 (thromboxane synthase): 7.51
Compound: Cc1ccc2c(c1)c1ccncc1n2CCCCCC(=O)O [Example 6, 6-Methyl-9H-pyrido(3,4-β)indole-9-hexanoic acid]

pIC50 (thromboxane synthase): 7.17
Compound: O=C(O)CCCCCn1c2ccc(Br)cc2c2ccncc21 [Example 5, 6-Bromo-9H-pyrido(3,4-β)indole-9-hexanoic acid]

pIC50 (thromboxane synthase): 6.68
Compound: O=C(O)CCCCCCn1c2ccccc2c2ccncc21 [Example 4]

Compound: O=C(O)CCCCCn1c2ccccc2c2ccncc21 [Example 1, 9H-Pyrido(3,4-β)indole-9-hexanoic acid]
pIC50 (thromboxane synthase): 7.28
Serum 6-keto-PGF1a ([1]; 0.001 μM): 3.01 ng/mL
Serum 6-keto-PGF1a ([1]; 0.01 μM): 5.09 ng/mL
Serum 6-keto-PGF1a ([1]; 0.1 μM): 7.07 ng/mL
Serum 6-keto-PGF1a ([1]; 1 μM): 7.71 ng/mL
Serum 6-keto-PGF1a ([1]; 10 μM): 7.82 ng/mL
effect on human serum 6-keto-PGF1a levels ([1]; human serum, result in words): dose-dependent stimulatory effect
Serum TXB2 (% control) (TXB2; i.v., 0.01 mg/kg, 15 minutes): 69 % control
Serum TXB2 (% control) (TXB2; i.v., 0.1 mg/kg, 15 minutes): 14 % control
Serum TXB2 (% control) (TXB2; i.v., 1 mg/kg, 15 minutes): 4 % control
availability by oral and i.v. routes (TXB2; inferred from decreased serum TXB2, result in words): availability of the compounds by both oral and i.v. routes
Serum TXB2 (% control) (TXB2; oral, 0.1 mg/kg, one hour): 54 % control
Serum TXB2 (% control) (TXB2; oral, 1 mg/kg, one hour): 16 % control
Serum TXB2 (% control) (TXB2; oral, 10 mg/kg, one hour): 2 % control
Serum TXB2 (% control) (TXB2; oral, 100 mg/kg, one hour): 1 % control

Compound: CC(=O)Oc1ccccc1C(=O)O [Aspirin]
generation of 6-keto-PGF1a [2]: completely inhibit

pIC50 (thromboxane synthase): 7.00
Compound: O=C(O)CCCCn1c2ccccc2c2ccncc21 [Example 3, 9H-Pyrido (3,4-β)indole-9-pentanoic acid]

pIC50 (thromboxane synthase): 7.31
Compound: COc1ccc2c(c1)c1ccncc1n2CCCCCC(=O)O [Example 7, 6-Methoxy-9H-pyrido(3,4-β)indole-9-hexanoic acid]
